No end group written: not given here.
What was measured:
[1] = target: proteinase K (Parengyodontium album, UniProt P06873); assay: Resistance to proteinase K digestion; settings: isolated enzyme proteinase k
[2] = Temperature-dependent circular dichroism; format: physicochemical; settings: CD; at 95°C

proteinase K, sequence (P06873 106-384, species assumed): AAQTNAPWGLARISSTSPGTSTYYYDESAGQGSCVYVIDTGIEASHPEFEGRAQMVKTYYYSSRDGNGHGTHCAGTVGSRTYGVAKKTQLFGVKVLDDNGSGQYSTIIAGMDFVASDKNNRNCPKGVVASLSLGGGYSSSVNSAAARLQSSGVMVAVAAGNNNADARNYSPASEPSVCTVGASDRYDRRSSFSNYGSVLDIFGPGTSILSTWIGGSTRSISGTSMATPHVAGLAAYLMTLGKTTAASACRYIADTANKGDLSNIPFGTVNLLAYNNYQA

Ac-TWNPATGKWT-NH2 [HP7Δ]
half-life [1]: 0.6 min

KTWNPATGKWTE [HP7]
half-life [1]: 2 min

NS1 HBS: HBS-stabilized β-hairpin derived from the Ras-binding NS1 monobody (GGWKGQVYYVG; HBS hydrogen bond surrogate constraint)
decrease in spectral intensity at 215 nm [2]: 25%
